According to paper PMC7955776 (Investigational new drugs, 2020):
Where “and” joins values, the source holds several entries; their conditions need not be identical. Equal entries are not always repeated. Marks after values point to notes of the source that are not given here.

What was measured:
[1] = RO4929097 plasma pharmacokinetics; format: in vivo, human; conditions: for AUC(0-inf) / Cmax / half-life / Vd/F: human, plasma, oral; for Vd/F: Vz/F
[2] = ECG monitoring during cycle 1; format: in vivo, human; conditions: 10 patients, cycle 1, before and after dosing on days 1 and 17
[3] = Phase I 3 + 3 dose escalation: DLT and MTD; conditions: human, in vivo
[4] = Safety: adverse events graded by CTCAE v4.0; format: in vivo, human; conditions: with paclitaxel and carboplatin
[5] = system: stage II-III TNBC; assay: Clinico-pathological response to neoadjuvant treatment; format: in vivo, human
[6] = 20 mg dose, Cycle 1 Day 15, N = 3, mean ± SD
[7] = 10 mg, 10 mg dose, Cycle 1 Day 1, N = 8, mean ± SD
[8] = 10 mg, 10 mg dose, Cycle 1 Day 15, N = 7, mean ± SD
[9] = 10 mg, 10 mg dose, Cycle 1 Day 17, N = 6, mean ± SD
[10] = 20 mg, 20 mg dose, Cycle 1 Day 1, N = 4, mean ± SD
[11] = 20 mg, 20 mg dose, Cycle 1 Day 15, N = 3, mean ± SD
[12] = 20 mg, 20 mg dose, Cycle 1 Day 17, N = 2, mean ± SD

## CC(C)(C(=O)NCC(F)(F)C(F)(F)F)C(=O)N[C@@H]1C(=O)Nc2ccccc2-c2ccccc21 [RO4929097]
[1]; 10 mg dose, Cycle 1 Day 1, N = 8, mean ± SD
  CL/F: 3.21 ± 0.84 L/h
[1]; 10 mg dose, Cycle 1 Day 15, N = 7, mean ± SD
  CL/F: 2.70 ± 1.07 L/h
[1]; 10 mg dose, Cycle 1 Day 17, N = 6, mean ± SD
  CL/F: 1.97 ± 1.12 L/h
[1]; 20 mg dose, Cycle 1 Day 1, N = 4, mean ± SD
  CL/F: 3.87 ± 1.09 L/h
[1]; [6]
  CL/F: 3.90 ± 2.20 L/h
  Half life: 36.0 ± 31.7 h
[1]; 20 mg dose, Cycle 1 Day 17, N = 2, mean ± SD
  CL/F: 2.47 ± 2.55 L/h
[1]; cycle 1
  Exposure on day 15 compared to day 1: 125%
[1]; cycle 1, both dose levels
  AUC (exposure) on day 17 compared to day 1: 220%
  Cmax on day 17 compared to day 1: 158%
[1]; [7]
  AUC(0-inf): 3280 ± 749 ng·h/mL
  Cmax: 203 ± 92.7 ng/mL
  half-life: 14.7 ± 2.2 h
[1]; [8]
  AUC(0-inf): 4120 ± 2140 ng·h/mL
  Cmax: 177 ± 93.6 ng/mL
  half-life: 20.1 ± 11.2 h
  Vd/F: 76.8 ± 46.8 L
[1]; [9]
  AUC(0-inf): 6210 ± 2610 ng·h/mL
  Cmax: 259 ± 113 ng/mL
  half-life: 20.6 ± 7 h
  Vd/F: 55.6 ± 25.4 L
[1]; [10]
  AUC(0-inf): 5520 ± 1680 ng·h/mL
  Cmax: 324 ± 116 ng/mL
  half-life: 22.8 ± 12.4 h
  Vd/F: 115 ± 38.6 L
[1]; [11]
  AUC(0-inf): 6730 ± 4230 ng·h/mL
  Cmax: 234 ± 25 ng/mL
  Vd/F: 139 ± 37.5 L
[1]; [12]
  AUC(0-inf): 17400 ng·h/mL
  Cmax: 422 ± 42.6 ng/mL
  half-life: 39.3 ± 39.9 h
  Vd/F: 66.3 ± 2.4 L
[2]
  QTc prolongation or other clinically significant ECG changes: No QTc prolongation or other clinically significant ECG changes were observed
[3]
  DLTs observed, all dose levels: 2
[4]; N = 1
  SAE: depression: 7%
  SAE: glucose intolerance: 7%
  SAE: hyperglycemia: 7%
  SAE: leukopenia: 7%
  SAE: neutropenia: 7%
  SAE: thrombocytopenia: 7%
  SAE: wound dehiscence: 7%
  SAE: wound infection: 7%
[4]; N = 3
  SAE: hypertension: 21%
[4]; duration of study
  Serious adverse events (SAEs) reported, number: Eleven
[4]; treatment-related AE, N = 14
  Alopecia, All Grades: 9 (64) N (%)
  Alopecia, Grade 1: 3 (21) N (%)
  Alopecia, Grade 2: 6 (43) N (%)
  Alopecia, Grade 3: 0 (0) N (%)
  Alopecia, Grade 4: 0 (0) N (%)
  Anemia, All Grades: 12 (86) N (%)
  Anemia, Grade 1: 0 (0) N (%)
  Anemia, Grade 2: 8 (57) N (%)
  Anemia, Grade 3: 4 (29%) N (%) and 4 (29) N (%)
  Anemia, Grade 4: 0 (0) N (%)
  Anorexia, All Grades: 9 (64) N (%)
  Anorexia, Grade 1: 8 (57) N (%)
  Anorexia, Grade 2: 1 (7) N (%)
  Anorexia, Grade 3: 0 (0) N (%)
  Anorexia, Grade 4: 0 (0) N (%)
  Constipation, All Grades: 10 (71) N (%)
  Constipation, Grade 1: 10 (71) N (%)
  Constipation, Grade 2: 0 (0) N (%)
  Constipation, Grade 3: 0 (0) N (%)
  Constipation, Grade 4: 0 (0) N (%)
  Dyspnea, All Grades: 10 (71) N (%)
  Dyspnea, Grade 1: 7 (50) N (%)
  Dyspnea, Grade 2: 3 (21) N (%)
  Dyspnea, Grade 3: 0 (0) N (%)
  Dyspnea, Grade 4: 0 (0) N (%)
  Elevated aspartate aminotransferase, All Grades: 6 (43) N (%)
  Elevated aspartate aminotransferase, Grade 1: 6 (43) N (%)
  Elevated aspartate aminotransferase, Grade 2: 0 (0) N (%)
  Elevated aspartate aminotransferase, Grade 3: 0 (0) N (%)
  Elevated aspartate aminotransferase, Grade 4: 0 (0) N (%)
  Epistaxis, All Grades: 8 (57) N (%)
  Epistaxis, Grade 1: 7 (50) N (%)
  Epistaxis, Grade 2: 1 (7) N (%)
  Epistaxis, Grade 3: 0 (0) N (%)
  Epistaxis, Grade 4: 0 (0) N (%)
  Fatigue, All Grades: 11 (79) N (%)
  Fatigue, Grade 1: 5 (36) N (%)
  Fatigue, Grade 2: 5 (36) N (%)
  Fatigue, Grade 3: 1 (7%) N (%) and 1 (7) N (%)
  Fatigue, Grade 4: 0 (0) N (%)
  Headache, All Grades: 9 (64) N (%)
  Headache, Grade 1: 8 (57) N (%)
  Headache, Grade 2: 1 (7) N (%)
  Headache, Grade 3: 0 (0) N (%)
  Headache, Grade 4: 0 (0) N (%)
  Hyperglycemia, All Grades: 7 (50) N (%)
  Hyperglycemia, Grade 1: 7 (50) N (%)
  Hyperglycemia, Grade 2: 0 (0) N (%)
  Hyperglycemia, Grade 3: 0 (0) N (%)
  Hyperglycemia, Grade 4: 0 (0) N (%)
  Hypertension, All Grades: 8 (57) N (%)
  Hypertension, Grade 1: 4 (29) N (%)
  Hypertension, Grade 2: 3 (21) N (%)
  Hypertension, Grade 3: 1 (7%) N (%) and 1 (7) N (%)
  Hypertension, Grade 4: 0 (0) N (%)
  Leukopenia, All Grades: 13 (93) N (%)
  Leukopenia, Grade 1: 1 (7) N (%)
  Leukopenia, Grade 2: 7 (50) N (%)
  Leukopenia, Grade 3: 5 (36) N (%)
  Leukopenia, Grade 4: 0 (0) N (%)
  Lymphocytopenia, All Grades: 12 (86) N (%)
  Lymphocytopenia, Grade 1: 5 (36) N (%)
  Lymphocytopenia, Grade 2: 5 (36) N (%)
  Lymphocytopenia, Grade 3: 2 (14) N (%)
  Lymphocytopenia, Grade 4: 0 (0) N (%)
  Nausea, All Grades: 12 (86) N (%)
  Nausea, Grade 1: 9 (64) N (%)
  Nausea, Grade 2: 3 (21) N (%)
  Nausea, Grade 3: 0 (0) N (%)
  Nausea, Grade 4: 0 (0) N (%)
  Neutropenia, All Grades: 11 (79) N (%)
  Neutropenia, Grade 1: 0 (0) N (%)
  Neutropenia, Grade 2: 3 (21) N (%)
  Neutropenia, Grade 3: 6 (43%) N (%) and 6 (43) N (%)
  Neutropenia, Grade 4: 2 (14%) N (%) and 2 (14) N (%)
  Peripheral sensory neuropathy, All Grades: 12 (86) N (%)
  Peripheral sensory neuropathy, Grade 1: 6 (43) N (%)
  Peripheral sensory neuropathy, Grade 2: 4 (29) N (%)
  Peripheral sensory neuropathy, Grade 3: 2 (14%) N (%) and 2 (14) N (%)
  Peripheral sensory neuropathy, Grade 4: 0 (0) N (%)
  Rash maculo-papular, All Grades: 10 (71) N (%)
  Rash maculo-papular, Grade 1: 7 (50) N (%)
  Rash maculo-papular, Grade 2: 3 (21) N (%)
  Rash maculo-papular, Grade 3: 0 (0) N (%)
  Rash maculo-papular, Grade 4: 0 (0) N (%)
  Thrombocytopenia, All Grades: 11 (79) N (%)
  Thrombocytopenia, Grade 1: 4 (29) N (%)
  Thrombocytopenia, Grade 2: 2 (14) N (%)
  Thrombocytopenia, Grade 3: 4 (29%) N (%) and 4 (29) N (%)
  Thrombocytopenia, Grade 4: 1 (7%) N (%) and 1 (7) N (%)
[4]
  Hospitalizations for neutropenic fevers or other treatment-related toxicities: no hospitalizations
[4]; N = 5
  G3 or higher thrombocytopenia, patients: 36%
[4]; N = 8
  G3 or higher neutropenia, patients: 57%
[4]; six patients
  Patients with Grade 2/Grade 3 neuropathy requiring dose reduction of paclitaxel: 43%
[5]; 5 of 14 patients, with paclitaxel and carboplatin
  pCR, patients: 36%
[5]; 5 patients, with paclitaxel and carboplatin
  Patients with residual disease in the breast and lymph nodes: 36%
[5]; 9 of 14 patients who completed chemotherapy (1 never received RO4929097)
  Overall response rate: 64%
[5]; neoadjuvant, with paclitaxel and carboplatin, N = 14
  Complete pathologic response: 5 (36) N (%)
[5]; neoadjuvant, with paclitaxel and carboplatin, N = 14, one patient did not receive RO4929097
  Residual disease: 9 (64)^a,b N (%)
